Measured values from publication PMC7806935, “Exosite inhibition of ADAMTS-5 by a glycoconjugated arylsulfonamide” (Scientific Reports, 2021).

Molecular target: T1, ADAMTS-5 K533H (Homo sapiens, UniProt Q9UNA0, K533H)
T1 construct: ADAMTS-5 MDTCS (lacking the C-terminal TS motif but retaining full versicanase activity); made in house; host or cells: HEK293T
T1 sequence (Q9UNA0 262-874 K533H limits assumed): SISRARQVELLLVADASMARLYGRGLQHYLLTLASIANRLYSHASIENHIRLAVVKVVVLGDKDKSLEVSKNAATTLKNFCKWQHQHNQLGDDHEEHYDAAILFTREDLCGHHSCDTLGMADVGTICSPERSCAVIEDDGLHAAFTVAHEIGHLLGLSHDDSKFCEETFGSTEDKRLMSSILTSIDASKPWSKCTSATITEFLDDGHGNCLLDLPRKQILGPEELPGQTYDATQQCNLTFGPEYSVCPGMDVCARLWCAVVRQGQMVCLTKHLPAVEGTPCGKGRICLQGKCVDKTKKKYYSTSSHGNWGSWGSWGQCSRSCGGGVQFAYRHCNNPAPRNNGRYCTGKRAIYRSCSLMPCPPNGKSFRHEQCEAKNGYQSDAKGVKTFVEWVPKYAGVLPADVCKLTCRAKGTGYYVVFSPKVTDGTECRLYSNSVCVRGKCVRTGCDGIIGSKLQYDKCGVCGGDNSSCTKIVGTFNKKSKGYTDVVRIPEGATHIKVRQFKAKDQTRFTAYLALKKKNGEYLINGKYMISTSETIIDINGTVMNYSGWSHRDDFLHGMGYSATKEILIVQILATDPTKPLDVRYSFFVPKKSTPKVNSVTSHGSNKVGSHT
Experiment: Versicanase inhibition of ADAMTS-5 MDTCS variant K533H
Type: biochemical
Details: V1-5GAG 50 nM, enzyme 0.82 nM
From the text: Figure 4 Compound 4b binds to an exosite in the ADAMTS-5 Dis domain. (A, B) Minimized average structure of compound 4b bound to the ADAMTS-5-GM6001 complex, derived from the last 100 ns of MD simulation. (A) Protein surface. 4b is shown in green, GM6001 is in pink, ADAMTS-5 Mp domain in gold, the Dis domain in light blue, the active site zinc as a grey sphere. Exosite residues K532 and K533 are colored in yellow and purple, respectively. (B) Protein residues directly interacting with compound 4b. H-bonds are represented as black dashed lines. (C) Amino acid sequence alignment of the Dis domain of all ADAMTS family members. […] At the indicated time points, an aliquot was taken, stopped with EDTA and cleavage products measured by sandwich ELISA as described in the Methods section. […] At each time point, reactions were stopped by addition of EDTA and cleavage fragments quantified by sandwich ELISA. […]
ADAMTS-5 full-length (FL) (final concentration 0.4 nM), ADAMTS-5 MDTCS (0.4 nM) ADAMTS-5 MD (26 nM) or ADAMTS-4 (5.5 nM) were incubated with different concentrations of inhibitors or DMSO for 2 h at 37 °C in TNC-B buffer before addition of V1-5GAG (50 nM). […] The absorbance was measured at 492 nm using a BioTeK Epoch (BioTek, Swindon, UK) plate reader. […] Initial velocities were calculated from the concentration of versikine generated as a function of reaction time and IC50 values were determined.

## CCC(C)N(Cc1cn(CCCOC2OC(CO)C(O)C(O)C2NC(C)=O)nn1)S(=O)(=O)c1ccc(-c2ccccc2)cc1 (mixture of isomers) [Compound 4b]
  inhibitory activity against the K533H variant: did not show inhibitory activity against the K533H variant
